Data as given in patent US8507557B2, “Potentiators of insulin secretion” (Wisconsin Alumni Research Foundation, priority 2003, dated 2013).

How the values were obtained:
[1] = system: rat Ins-1 beta cell line; settings: rat Ins-1 cells; effect not as dramatic as in responsive cell line
[2] = system: pancreatic β cells; assay: Insulin secretion from pancreatic β cells with Ca2+ channel, α2-adrenergic and KATP modulators; settings: for effect on insulin secretion elicited by glyburide: in the presence of glyburide; for effect on insulin secretion caused by glucose, KIC, αKG or DPD: α2-adrenergic agonists
Procedure: The physiological relevance of insulin secretion from pancreatic β cells elicited by αKG was evaluated.
Possible targets for the segretagogue action of αKG were examined by reevaluating targets implicated for KIC-dependent increases in insulin secretion, since the effects of KIC are likely exerted through transamination that yields αKG. […] To biochemically test this hypothesis the inventors used known drugs to modulate KATP and then determined whether αKG and DPD could still affect insulin secretion.

[3] = system: hyperexcitable Newgard Ins-1 cells; settings: low (3 mM) or high (15 mM) glucose; 2 hours at 3 mM glucose with compound, then 2 hours
Procedure: The cells were incubated at 3 mM glucose with the indicated concentrations of either αKG or the DPD analog for 2 hours. Then, the cells were incubated for an additional 2 hours in either 3 or 15 mM glucose.

[4] = system: Ins-1 cell; assay: Ins-1 cell insulin secretion assay, preliminary SAR study in high glucose (FIG. 1); format: cell-based, rat; settings: presence of high glucose; Ins-1 cell assay
Procedure: The ability of various structurally-related compounds to alter insulin secretion in the presence of high glucose was tested in a preliminary structure-activity relationship (SAR) study to elucidate the molecular structures relevant to the insulin segretagogue potential of DPD and other αKG analogs. The compounds tested, shown in FIG. 1, are presented in order of decreasing ability to secrete insulin in an Ins-1 cell assay of the type described below in the Working Example. Each tested compound is commercially available and all were purchased from Sigma-Aldrich. Each compound contained two carboxylate groups. Variables evaluated in this study included the relative position of the carboxylate groups to one another, as well as the presence or absence of a nitrogen or sulfur group, additional R-groups, and esterified carboxy groups.

[5] = system: β cells; settings: without affecting glucose metabolism; cited from earlier work
[6] = as reported in Diabetes Care 25:1271 (2002); cited from earlier work

For `CCOC(=O)c1ccnc(C(=O)OCC)c1` [DPD, 2,4-diethyl pyridine dicarboxylate], the “effect on insulin secretion (fractional insulin release)” value [1] was “increase in insulin secretion”, the “potency on insulin secretion relative to αKG” value [2] was “extremely potent relative to αKG” and the “effect on insulin secretion elicited by glyburide” value (“effect … by glyburide” for short) [2] was “augmented”. For the same compound, the “effect upon insulin secretion (fractional insulin release)” value [3] was “marked positive effect” and the insulin secretion [4] was about 14%.

In the case of `CC1=NS(=O)(=O)c2cc(Cl)ccc2N1` [Diazoxide], the “effect on ability of αKG, DPD and KIC to promote insulin release” value ([2]; KATP agonist) is reported as “completely suppresses”.

In the case of `CC(C)CC(=O)C(=O)O` [KIC, α-ketoisocaproic acid], the “effect … by glyburide” value [2] is reported as “augmented”.

With `Clc1cccc(Cl)c1N=C1NCCN1` [clonidine] the “effect on insulin secretion caused by glucose, KIC, αKG or DPD” value [2] was “greatly suppressed”.

With `CNC[C@H](O)c1ccc(O)c(O)c1` [epinephrine] the “effect on insulin secretion caused by glucose, KIC, αKG or DPD” value [2] was “greatly suppressed”.

In the case of `O=c1c(-c2ccc(O)cc2)coc2cc(O)cc(O)c12` [genistein], the “effect on KIC-stimulated insulin release” value [5] is listed as “inhibited”.

In the case of `Cc1cnc(C(=O)NCCc2ccc(S(=O)(=O)NC(=O)NC3CCCCC3)cc2)cn1` [glipizide], the increase in insulin [6] is listed as 54%.

With `COc1ccc(Cl)cc1C(=O)NCCc1ccc(S(=O)(=O)NC(=O)NC2CCCCC2)cc1` [glyburide] the insulin secretion elicited ([2]; KATP antagonist) was “elicits an insulin secretion”.

For `CCOc1cc(CC(=O)N[C@@H](CC(C)C)c2ccccc2N2CCCCC2)ccc1C(=O)O` [repaglinide], the increase in insulin [6] is listed as 47%.

For `N#C/C(=C\c1ccc(O)c(O)c1)C(N)=S` [tyrphostin A47], the “effect on KIC-stimulated insulin release” value [5] is listed as “inhibited”.

With `O=C(O)CCC(=O)C(=O)O` [αKG, α-ketoglutarate] the “effect … by glyburide” value [2] was “augmented”.
